Reference: US20210047324A1 (Aptinyx Inc., priority 2018, published 2021)
Values joined by “and” are separate entries in the source; they are usually repeats but may differ in a detail not shown here. Equal values may be shown once.

Assays:
[1] = biological target: T1, NMDAR2B (Homo sapiens, UniProt Q13224); test: NMDAR agonist assay, [3H]MK-801 binding, NMDAR2B expressing HEK cell membranes; type: biochemical; design: key to NMDAR2B B: log EC50: 0=−; ≥1×10^−9 M (e.g., −8)=+; <1×10^−9 M (e.g., −10)=++; details: 50 μM glutamate; for Emax / NMDAR2B A: % maximal [3H]MK-801 binding relative to 1 mM glycine: relative to 1 mM glycine; for Emax: read-out: NMDAR2B A: % maximal [3H]MK-801 binding relative to 1 mM glycine; for EC50: read-out: NMDAR2B B: log EC50 (converted)
T1 construct: expressed in transfected cells; host or cells: HEK cells (membrane extract)
Method: (§1) Assays were conducted as described by Moskal et al., “GLYX-13: a monoclonal antibody-derived peptide that acts as an N-methyl-D-aspartate receptor modulator,” Neuropharmacology, 49, 1077-87, 2005. These studies were designed to determine if the test compounds act to facilitate NMDAR activation in NMDAR2A, NMDAR2B, NMDAR2C or NMDAR2D expressing HEK cell membranes as measured by increases in [^3H]MK-801 binding.
(§2) In the assay, 300 μg of NMDAR expressing HEK cell membrane extract protein was preincubated for 15 minutes at […] in the presence of saturating concentrations of glutamate (50 μM) and varying concentrations of test compound (1×10^−15M-1×10^−7M), or 1 mM glycine. Following the addition of 0.3 μCi of [3H]MK-801 (22.5 Ci/mmol), reactions were again incubated for 15 minutes at 25° C. (nonequilibrium conditions). Bound and free [3H]MK-801 were separated via rapid filtration using a Brandel apparatus.
(§3) In analyzing the data, the DPM (disintegrations per minute) of [3H]MK-801 remaining on the filter were measured for each concentration of test compound or for 1 mM glycine. The DPM values for each concentration of a ligand (N=2) were averaged. The baseline value was determined from the best fit curve of the DPM values modeled using the GraphPad program and the log(agonist) vs. response (three parameters) algorithm was then subtracted from all points in the dataset. The % maximal [^3H]MK-801 binding was then calculated relative to that of 1 mM glycine: all baseline subtracted DPM values were divided by the average value for 1 mM glycine. The EC50 and % maximal activity were then obtained from the best fit curve of the % maximal [3H]MK-801 binding data modelled using the GraphPad program and the log(agonist) vs. response (three parameters) algorithm.
(§4) The tables below summarize the results for the wild type […] NMDAR2A, NMDAR2B, NMDAR2C, and NMDAR2D, and whether the compound is not an agonist (−), is an agonist (+), or is a strong agonist (++), where column A is based on the % maximal [3H]MK-801 binding relative to 1 mM glycine (−=0; <100%=+; and >100%=++); and column B is based on log EC50 values (0=−; ≥1×10^−9 M (e.g., −8)=+; and <1×10^−9 M (e.g., −10)=++).

[2] = biological target: T2, NMDAR2A (Homo sapiens, UniProt Q12879); test: NMDAR agonist assay, [3H]MK-801 binding, NMDAR2A expressing HEK cell membranes; type: biochemical; design: key to NMDAR2A B: log EC50: 0=−; ≥1×10^−9 M (e.g., −8)=+; <1×10^−9 M (e.g., −10)=++; details: 50 μM glutamate; for EC50: read-out: NMDAR2A B: log EC50 (converted); for Emax: 0.25 h, read-out: NMDAR2A A: % maximal [3H]MK-801 binding relative to 1 mM glycine; for NMDAR2A A: % maximal [3H]MK-801 binding relative to 1 mM glycine / Emax: relative to 1 mM glycine
T2 construct: expressed in transfected cells; host or cells: HEK cells (membrane extract)
Method: as §1, §2, §3, §4

[3] = Microsomal stability (Human); type: in vitro ADME; details: after 60 minutes
Method: (§5) Microsomal stability of disclosed compounds was investigated. The following table indicates the percent of compound remaining after 60 minutes.

[4] = Oral pharmacokinetics in Sprague Dawley rats (plasma, brain, CSF); type: in vivo; details: rat, 10 mg/kg; for Tmax / AUC(0-t) / bioavailability / Cmax: Sprague-Dawley, po, plasma; for Tmax / AUC(0-t) / Cmax / CSF Cmax / Brain Cmax: per os; for Tmax: read-out: Tmax; for bioavailability: per os 10 mg/kg; for Cmax: read-out: Cmax
Method: In another experiment, Sprague Dawley rats were dosed per os (oral gavage) using a normal saline formulation containing 10 mg/kg of the compounds identified in the table below. Plasma, brain, and CSF samples were analyzed at various time points over a 24 hour period. The table below summarizes the results of the oral pharmacokinetics, where the first three values (Tmax, Cmax and AUClast) are plasma values.

[5] = IV pharmacokinetics in Sprague Dawley rats; type: in vivo; details: Sprague-Dawley, rat, in vivo, iv, 2 mg/kg, normal saline; for Cmax: read-out: Cmax; for Vd: read-out: Vss
Method: Sprague Dawley rats were dosed intravenously using a normal saline formulation containing 2 mg/kg of the compounds identified in the below table. The table below summarizes the results of the IV pharmacokinetics.

[6] = Plasma stability (Human); type: in vitro ADME; details: after 60 minutes
Method: (§6) Plasma stability of disclosed compounds was investigated. The following table indicates the percent of compound remaining after 60 minutes.

[7] = Plasma stability (Rat); type: in vitro ADME; details: after 60 minutes
Method: as §6

[8] = Microsomal stability (Rat); type: in vitro ADME; details: after 60 minutes
Method: as §5

[9] = test system: Sprague Dawley rats; test: Porsolt forced swim test; type: in vivo; details: 1 h post-dose, 0.1 mg/kg
Method: A non-clinical in vivo pharmacology study (Porsolt assay) was performed to measure antidepressant-like effects. The study allowed for the evaluation of the effects of each compound on the Porsolt forced swim test as assessed by the rats' response (reduced floating time) during a 5-minute swimming test.
Male 2-3 month old Sprague Dawley rats were used (Harlan, Indianapolis, Ind.). Rats were housed in Lucite cages with aspen wood chip bedding, maintained on a 12:12 light:dark cycle (lights on at 5 AM), and given ad libitum access to Purina lab chow (USA) and tap water throughout the study.
The Porsolt forced swim test adapted for use in rats was performed as described by Burgdorf et al., (The long-lasting antidepressant effects of rapastinel (GLYX-13) are associated with a metaplasticity process in the medial prefrontal cortex and hippocampus. Neuroscience 308:202-211, 2015). Animals were placed in a 46 cm tall×20 cm in diameter clear glass tube filled to 30 cm with tap water (23±1° C.) for 15 min on the first day (habituation) and 5 min on the subsequent test day. Animals were tested 1 h or 24 h post-dosing with the test compounds or vehicle control (0.5% sodium carboxymethyl cellulose in 0.9% sterile saline). A subset of compounds tested at 1 h post-dosing was tested again 1 wk post-dosing. Animals received a 15 min habituation session 1 day before the first 5 min test. Water was changed after every other animal. Animals were videotaped, and floating time as defined as the minimal amount of effort required to keep the animals head above water was scored offline by a blinded experimenter with high inter-rater reliability (Pearson's r >0.9).

T1 sequence (Q13224 27-1484, species assumed, other chains not shown): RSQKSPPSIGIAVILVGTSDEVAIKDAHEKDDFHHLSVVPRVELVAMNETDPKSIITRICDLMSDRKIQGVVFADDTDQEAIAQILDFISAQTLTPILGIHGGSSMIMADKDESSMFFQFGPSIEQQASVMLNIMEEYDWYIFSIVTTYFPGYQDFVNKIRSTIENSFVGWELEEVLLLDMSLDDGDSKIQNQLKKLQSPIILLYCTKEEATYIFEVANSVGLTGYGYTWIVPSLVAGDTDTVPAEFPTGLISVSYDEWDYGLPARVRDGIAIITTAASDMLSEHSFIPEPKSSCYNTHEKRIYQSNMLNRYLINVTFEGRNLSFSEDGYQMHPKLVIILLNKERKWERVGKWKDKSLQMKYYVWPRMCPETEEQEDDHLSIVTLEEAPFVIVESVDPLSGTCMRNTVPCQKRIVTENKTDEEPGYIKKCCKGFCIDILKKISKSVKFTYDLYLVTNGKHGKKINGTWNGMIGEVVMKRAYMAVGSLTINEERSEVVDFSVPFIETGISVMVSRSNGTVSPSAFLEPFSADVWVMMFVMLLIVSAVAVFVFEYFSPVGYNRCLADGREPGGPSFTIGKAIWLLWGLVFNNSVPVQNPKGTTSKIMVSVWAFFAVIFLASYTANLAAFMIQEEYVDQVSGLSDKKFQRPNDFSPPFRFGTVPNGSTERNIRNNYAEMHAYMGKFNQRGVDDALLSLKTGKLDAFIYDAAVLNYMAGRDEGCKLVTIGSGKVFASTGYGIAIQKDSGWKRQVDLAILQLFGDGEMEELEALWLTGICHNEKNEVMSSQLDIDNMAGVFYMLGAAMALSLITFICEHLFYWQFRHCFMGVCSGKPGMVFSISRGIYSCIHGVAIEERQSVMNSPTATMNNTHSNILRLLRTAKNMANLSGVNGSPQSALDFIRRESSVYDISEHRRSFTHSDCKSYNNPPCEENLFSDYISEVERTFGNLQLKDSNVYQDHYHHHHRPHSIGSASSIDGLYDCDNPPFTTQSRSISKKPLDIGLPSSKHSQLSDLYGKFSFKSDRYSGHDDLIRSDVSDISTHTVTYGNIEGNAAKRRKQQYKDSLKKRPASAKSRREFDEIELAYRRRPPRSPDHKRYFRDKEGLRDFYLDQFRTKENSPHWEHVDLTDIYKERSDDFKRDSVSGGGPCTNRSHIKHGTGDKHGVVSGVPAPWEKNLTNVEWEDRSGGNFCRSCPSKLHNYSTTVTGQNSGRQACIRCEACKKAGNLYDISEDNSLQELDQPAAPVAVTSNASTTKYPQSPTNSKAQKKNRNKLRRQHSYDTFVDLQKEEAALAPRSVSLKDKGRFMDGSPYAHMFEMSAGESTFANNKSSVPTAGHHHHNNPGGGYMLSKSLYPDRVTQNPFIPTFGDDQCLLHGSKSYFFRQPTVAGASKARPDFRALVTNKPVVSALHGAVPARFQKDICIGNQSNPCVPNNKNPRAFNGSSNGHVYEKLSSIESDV
T2 sequence (Q12879 23-1464, species assumed, other chains not shown): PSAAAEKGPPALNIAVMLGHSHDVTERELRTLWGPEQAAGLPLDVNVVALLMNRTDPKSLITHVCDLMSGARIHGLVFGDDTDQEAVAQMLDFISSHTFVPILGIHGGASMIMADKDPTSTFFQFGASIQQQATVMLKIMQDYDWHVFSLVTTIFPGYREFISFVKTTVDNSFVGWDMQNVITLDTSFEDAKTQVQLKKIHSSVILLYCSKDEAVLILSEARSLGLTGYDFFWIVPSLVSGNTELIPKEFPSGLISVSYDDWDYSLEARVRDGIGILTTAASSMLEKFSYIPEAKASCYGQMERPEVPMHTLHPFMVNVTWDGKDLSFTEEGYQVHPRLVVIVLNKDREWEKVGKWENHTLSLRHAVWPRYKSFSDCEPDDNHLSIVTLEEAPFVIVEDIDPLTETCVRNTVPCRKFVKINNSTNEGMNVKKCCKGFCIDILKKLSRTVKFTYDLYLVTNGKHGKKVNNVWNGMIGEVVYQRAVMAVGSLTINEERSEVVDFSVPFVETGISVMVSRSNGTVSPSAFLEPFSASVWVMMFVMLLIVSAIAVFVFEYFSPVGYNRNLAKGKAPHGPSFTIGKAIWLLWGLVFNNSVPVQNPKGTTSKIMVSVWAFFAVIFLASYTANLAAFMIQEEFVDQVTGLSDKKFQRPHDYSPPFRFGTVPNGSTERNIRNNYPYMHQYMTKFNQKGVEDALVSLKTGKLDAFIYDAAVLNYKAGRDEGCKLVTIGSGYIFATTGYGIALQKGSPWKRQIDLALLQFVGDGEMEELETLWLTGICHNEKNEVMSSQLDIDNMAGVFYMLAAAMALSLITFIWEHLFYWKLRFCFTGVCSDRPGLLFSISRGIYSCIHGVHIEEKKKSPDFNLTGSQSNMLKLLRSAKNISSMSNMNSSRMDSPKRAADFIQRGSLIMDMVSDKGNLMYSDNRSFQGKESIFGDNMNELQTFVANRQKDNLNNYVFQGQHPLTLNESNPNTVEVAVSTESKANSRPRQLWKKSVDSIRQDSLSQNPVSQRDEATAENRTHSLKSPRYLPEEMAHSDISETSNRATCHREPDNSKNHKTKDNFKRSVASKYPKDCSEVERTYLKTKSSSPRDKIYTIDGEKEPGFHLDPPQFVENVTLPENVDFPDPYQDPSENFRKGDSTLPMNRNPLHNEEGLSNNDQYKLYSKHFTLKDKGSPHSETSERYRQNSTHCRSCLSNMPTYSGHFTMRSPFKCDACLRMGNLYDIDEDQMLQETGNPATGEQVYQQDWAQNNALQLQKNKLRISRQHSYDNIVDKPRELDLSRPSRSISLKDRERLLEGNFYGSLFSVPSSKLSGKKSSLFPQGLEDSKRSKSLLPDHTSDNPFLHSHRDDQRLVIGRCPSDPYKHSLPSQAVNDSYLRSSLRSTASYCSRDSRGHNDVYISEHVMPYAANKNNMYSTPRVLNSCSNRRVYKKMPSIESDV

With CN1CC=CCC2(CCCN2C)C1=O (stereo not drawn) [listing 1 of 2 here] the “NMDAR2B B: log EC50” value [1] was “−”, the Emax [1] was 0% and the “NMDAR2A B: log EC50” value [2] was “−”. For the same compound, the “NMDAR2A A: % maximal [3H]MK-801 binding relative to 1 mM glycine” value [2] was “− (−=0)”.

For CN1CC=CCC2(CCCN2C)C1=O (stereo not drawn) [listing 2 of 2 here], the “NMDAR2B B: log EC50” value [1] was “−”, the “NMDAR2B A: % maximal [3H]MK-801 binding relative to 1 mM glycine” value [1] was “− (−=0)” and the EC50 [2] was < 1 nM. The “NMDAR2A A: % maximal [3H]MK-801 binding relative to 1 mM glycine” value [2] was “+ (<100%=+)”.

For O=C1NCCCCC12CCCCN2 (single isomer, unassigned) [BA, 1,8-diazaspiro[5.6]dodecan-7-one], the EC50 [1] was < 1 nM and the EC50 [2] was < 1 nM.

In the case of O=C1NCCCC12CCCNC2 (single isomer, unassigned) [CD, 2,8-diazaspiro[5.5]undecan-1-one], the EC50 [1] is reported as < 1 nM, the Emax [1] is reported as < 100% and the EC50 [2] is reported as < 1 nM. The Emax [2] was < 100%.

In the case of O=C1NCCCC12CCCNC2 (single isomer, unassigned) [CE, 2,8-diazaspiro[5.5]undecan-1-one], the EC50 [1] is reported as < 1 nM and the EC50 [2] is reported as < 1 nM.

In the case of O=C1NCCCCC12CCCNC2 (single isomer, unassigned) [CG, 2,8-diazaspiro[5.6]dodecan-7-one], the EC50 [1] is reported as < 1 nM and the EC50 [2] is reported as < 1 nM.

For CC(C)(C)OC(=O)N1CCCCCC12CNC2=O (single isomer, unassigned) [EI-2, tert-butyl 1-oxo-2,5-diazaspiro[3.6]decane-5-carboxylate], the EC50 [2] was < 1 nM.

For CN1CCCC12CC=CCNC2=O (single isomer, unassigned) [GC-1, 1-methyl-1,7-diazaspiro[4.6]undec-9-en-6-one], the “Microsomal (Human): percent of compound remaining” value [3] was 115% and 67%, the Tmax [4] was 25.2 min and the AUC(0-t) [4] was 4430 ng·h/mL. The bioavailability [4] was 87%, the Cmax [4] was 2400 ng/mL and the “CSF Cmax” value [4] was 744.03 ng/mL. For the same compound, the “Brain Cmax” value [4] was 2578.7 ng/mL, the EC50 [1] was < 1 nM and the Emax [1] was > 100%. For the same compound, the AUC(0-t) [5] was 1020 ng·h/mL, the clearance [5] was 32.2 mL/min/kg and the half-life [5] was 40.8 min. For the same compound, the Cmax [5] was 1210 ng/mL, the Vd [5] was 1.78 L/kg and the EC50 [2] was < 1 nM. The Emax [2] was < 100%, the “Plasma (Human): percent of compound remaining” value [6] was 97% and the “Plasma (Rat): percent of compound remaining” value [7] was 89%.

With CN1CCCC12CC=CCNC2=O (single isomer, unassigned) [GC-2, 1-methyl-1,7-diazaspiro[4.6]undec-9-en-6-one] the “Microsomal (Human): percent of compound remaining” value [3] was 82% and 100%, the EC50 [1] was < 1 nM and the “NMDAR2B A: % maximal [3H]MK-801 binding relative to 1 mM glycine” value [1] was “+ (<100%=+)”. The EC50 [2] was ≥ 1 nM, the “NMDAR2A A: % maximal [3H]MK-801 binding relative to 1 mM glycine” value [2] was “+ (<100%=+)” and the “Plasma (Human): percent of compound remaining” value [6] was 98%. For the same compound, the “Plasma (Rat): percent of compound remaining” value [7] was 103%.

For CC(=O)N1CCCC12CC=CCNC2=O (single isomer, unassigned) [GG-1, 1-acetyl-1,7-diazaspiro[4.6]undec-9-en-6-one], the EC50 [1] was < 1 nM, the Emax [1] was < 100% and the EC50 [2] was < 1 nM. The Emax [2] was < 100%.

For CC(C)C(=O)N1CCCC12CC=CCNC2=O (single isomer, unassigned) [GH-2, 1-isobutyryl-1,7-diazaspiro[4.6]undec-9-en-6-one], the “Microsomal (Human): percent of compound remaining” value [3] was 87%, the Tmax [4] was 25.2 min and the AUC(0-t) [4] was 11300 ng·h/mL. The bioavailability [4] was 100%, the Cmax [4] was 5300 ng/mL and the “CSF Cmax” value [4] was 2296.73 ng/mL. For the same compound, the “Brain Cmax” value [4] was 1424.03 ng/mL, the EC50 [1] was < 1 nM and the “NMDAR2B A: % maximal [3H]MK-801 binding relative to 1 mM glycine” value [1] was “++ (>100%=++)”. The “Microsomal (Rat): percent of compound remaining” value [8] was 104%, the AUC(0-t) [5] was 1990 ng·h/mL and the clearance [5] was 16.7 mL/min/kg. For the same compound, the half-life [5] was 25.8 min, the Cmax [5] was 1500 ng/mL and the Vd [5] was 0.75 L/kg. For the same compound, the EC50 [2] was < 1 nM and the “NMDAR2A A: % maximal [3H]MK-801 binding relative to 1 mM glycine” value [2] was “+ (<100%=+)”.

O=C1N(Cc2ccc(F)cc2)CC=CCC12CCCN2 (single isomer, unassigned) [GK-1, 7-(4-fluorobenzyl)-1,7-diazaspiro[4.6]undec-9-en-6-one] showed a Tmax [4] of 30 min, an AUC(0-t) [4] of 718 ng·h/mL and a bioavailability [4] of 43%. For the same compound, the Cmax [4] was 642 ng/mL, the “CSF Cmax” value [4] was 322.45 ng/mL and the “Brain Cmax” value [4] was 3368.95 ng/mL. The EC50 [1] was < 1 nM, the Emax [1] was > 100% and the AUC(0-t) [5] was 335 ng·h/mL. For the same compound, the clearance [5] was 98.4 mL/min/kg, the half-life [5] was 32.4 min and the Cmax [5] was 854 ng/mL. The Vd [5] was 3.01 L/kg, the EC50 [2] was < 1 nM and the “NMDAR2A A: % maximal [3H]MK-801 binding relative to 1 mM glycine” value [2] was “+ (<100%=+)”. The “% reduction in float time” value [9] was 24% and the Significance vs. vehicle [9] was “No”.

For O=C1NCC=CCC12CC(F)(F)CN2 (single isomer, unassigned) [GL-1, 3,3-difluoro-1,7-diazaspiro[4.6]undec-9-en-6-one], the EC50 [1] was < 1 nM, the Emax [1] was < 100% and the EC50 [2] was < 1 nM. The Emax [2] was < 100%.

In the case of CN1CC=CCC2(CCCN2Cc2ccccc2)C1=O (single isomer, unassigned) [GT-2, 1-benzyl-7-methyl-1,7-diazaspiro[4.6]undec-9-en-6-one], the EC50 [1] is reported as ≥ 1 nM and the EC50 [2] is reported as < 1 nM.

In the case of CC(C)C(=O)N1CCC2(CCCN2C(=O)C(C)C)C1=O (single isomer, unassigned) [GU-2, 1,1′-(6-oxo-1,7-diazaspiro[4.4]nonane-1,7-diyl)bis(2-methylpropan-1-one)], the EC50 [1] is reported as < 1 nM, the “NMDAR2B A: % maximal [3H]MK-801 binding relative to 1 mM glycine” value [1] is reported as “+ (<100%=+)” and the EC50 [2] is reported as < 1 nM. For the same compound, the “NMDAR2A A: % maximal [3H]MK-801 binding relative to 1 mM glycine” value [2] was “+ (<100%=+)”.

For O=C1NCCCC12CCCN2 (stereo not drawn) [EU-1, 1,7-diazaspiro[4.5]decan-6-one], the EC50 [1] was < 1 nM, the Emax [1] was < 100% and the “NMDAR2A B: log EC50” value [2] was “−”. For the same compound, the Emax [2] was 0%.
